pEC50: −log10 of the molar value. Some results are limits rather than exact numbers.

Experimental findings from US11827629B2, “CDGSH iron sulfur domain 2 activators and use thereof” (National Health Research Institutes, priority 2021, dated 2023) are described below.

The test relates to Cisd2 promoter with firefly luciferase reporter. Briefly: Cisd2-luciferase reporter assay in HEK293-CISD2 cells. The class given is cell-based. Conditions: Homo sapiens, 24 hours incubation, luciferase luminescence. The procedure: A typical in vitro screening method includes the following steps: (i) obtaining an initial level of Cisd2 in a batch of human embryonic kidney cells 293 (HEK-293 cells) that express Cisd2, (ii) treating the batch of HEK-293 cells with a compound of this invention, and (iii) analyzing the level of Cisd2 after the treatment, thereby determining the potency of the compound as a Cisd2 activator.
Compounds 1-109 were tested for increasing the level of Cisd2 in human embryonic kidney cells 293 (HEK293), a transfected cell line expressing Cisd2, using the Cisd2-luciferase reporter assay as follows.
The transfected HEK293 cells stably expressed Cisd2 promoter with firefly luciferase reporter (HEK293-CISD2). They were kept in Dulbecco's modified Eagle's medium (DMEM) (Gibco, New York, NY, USA). Culture medium was supplemented with 10% heat-inactivated fetal bovine serum (FBS), 2 mM L-Glutamine, 1 mM sodium pyruvate, 0.1% MEM Non-Essential Amino Acids, 1 ug/ml puromycin and 1% penicillin/streptomycin (HyClone, Logan, UT, USA). The cells were maintained at 37° C. in an incubator (Thermo Fisher Scientific, New York, NY, USA) with an atmosphere of 5% CO2. The stably transfected cells were seeded in 384-well plates at a density of 3×10^3 cells/well. After incubation with tested compounds at 37° C. for 24 hours, ONE-Glo™ Luciferase Assay System (Promega, Madison, WI, USA) was added at room temperature for 5 minutes to detect any luciferase activity. Luminescence intensity was registered using plate reader Victor^2V (PerkinElmer, Boston, MA, USA).
EC50 values in this table are presented in three classes, i.e., A: <1 μM, B: 1 μM-5 μM, and C: 5 μM-10 μM.
(In general: Reporter assays use an easily measured gene product as a stand-in for the process of interest.)
Take `O=C(CCSc1nccs1)N1Cc2ccccc2C1` [Compound 23, 1-(1,3-dihydro-2H-isoindol-2-yl)-3-(1,3-thiazol-2-ylsulfanyl)propan-1-one]: the pEC50 – broadly, the EC50 on a negative log10 scale, so that one unit is a factor of ten – is > 6.00. Under `O=C(CSc1nccs1)N1Cc2ccccc2C1` [Compound 1, 1-(1,3-dihydro-2H-isoindol-2-yl)-2-(1,3-thiazol-2-ylsulfanyl)ethanone] stands > 6.00. Under `O=C(CSc1ncc[nH]1)N1Cc2ccccc2C1` [Compound 21, 1-(1,3-dihydro-2H-isoindol-2-yl)-2-(1H-imidazol-2-ylsulfanyl)ethanone] stands 5.00 to 5.30; under `O=C(CSc1nccs1)N1Cc2ccc(F)cc2C1` [Compound 5, 1-(5-fluoro-1,3-dihydro-2H-isoindol-2-yl)-2-(1,3-thiazol-2-ylsulfanyl)ethanone], > 6.00; under `O=C(CS(=O)(=O)c1ccccc1F)N1Cc2ccccc2C1` [Compound 90, 1-(1,3-dihydro-2H-isoindol-2-yl)-2-[(2-fluorophenyl)sulfonyl]ethanone], > 6.00. The figure for `O=C(N1Cc2ccccc2C1)C(F)(F)[S+]([O-])c1nccs1` (stereo not shown) [Compound 54, 1-(1,3-dihydro-2H-isoindol-2-yl)-2,2-difluoro-2-(1,3-thiazol-2-ylsulfinyl)ethanone] is > 6.00; for `O=C(CS(=O)(=O)c1ccccn1)N1Cc2ccccc2C1` [Compound 38, 1-(1,3-dihydro-2H-isoindol-2-yl)-2-(pyridin-2-ylsulfonyl)ethanone] it is > 6.00; for `O=C(CSc1ccccc1F)N1Cc2ccc(F)cc2C1` [Compound 63, 1-(5-fluoro-1,3-dihydro-2H-isoindol-2-yl)-2-[(2-fluorophenyl)sulfanyl]ethanone] it is > 6.00.

Consider `O=C(CS(=O)(=O)c1ccc(Cl)s1)N1Cc2ccccc2C1` [Compound 88, 2-[(5-chlorothiophen-2-yl)sulfonyl]-1-(1,3-dihydro-2H-isoindol-2-yl)ethanone], for which the pEC50 is > 6.00. Under `Cc1cnc(SCC(=O)N2Cc3ccccc3C2)s1` [Compound 11, 1-(1,3-dihydro-2H-isoindol-2-yl)-2-[(5-methyl-1,3-thiazol-2-yl)sulfanyl]ethanone] stands > 6.00; under `O=C(CC[S+]([O-])c1ccccc1)N1Cc2ccccc2C1` (stereo not shown) [Compound 84, 1-(1,3-dihydro-2H-isoindol-2-yl)-3-(phenylsulfinyl)propan-1-one], > 6.00. Regarding `O=C(CS(=O)(=O)c1nccs1)N1Cc2ccc([N+](=O)[O-])cc2C1` [Compound 36, 1-(5-nitro-1,3-dihydro-2H-isoindol-2-yl)-2-(1,3-thiazol-2-ylsulfonyl)ethanone], the pEC50 is 5.30 to 6.00.

`O=C(CSc1nccs1)N1Cc2ccc([N+](=O)[O-])cc2C1` [Compound 10, 1-(5-nitro-1,3-dihydro-2H-isoindol-2-yl)-2-(1,3-thiazol-2-ylsulfanyl)ethanone]: the pEC50 was 5.30 to 6.00. For `O=C(CSc1cc(F)ccc1F)N1Cc2ccccc2C1` [Compound 58, 2-[(2,5-difluorophenyl)sulfanyl]-1-(1,3-dihydro-2H-isoindol-2-yl)ethanone], the pEC50 is > 6.00. In the case of `Cc1csc(S(=O)(=O)CC(=O)N2Cc3ccccc3C2)n1` [Compound 94, 1-(1,3-dihydro-2H-isoindol-2-yl)-2-[(4-methyl-1,3-thiazol-2-yl)sulfonyl]ethanone], the pEC50 is > 6.00.

`O=C(CSc1ncccn1)N1Cc2ccccc2C1` [Compound 22, 1-(1,3-dihydro-2H-isoindol-2-yl)-2-(pyrimidin-2-ylsulfanyl)ethanone] gave a pEC50 of 5.00 to 5.30. The figure for `O=C(CCS(=O)(=O)c1ccccn1)N1Cc2ccc(F)cc2C1` [Compound 49, 1-(5-fluoro-1,3-dihydro-2H-isoindol-2-yl)-3-(pyridin-2-ylsulfonyl)propan-1-one] is 5.30 to 6.00; for `O=C(CS(=O)(=O)c1ncccn1)N1Cc2ccccc2C1` [Compound 43, 1-(1,3-dihydro-2H-isoindol-2-yl)-2-(pyrimidin-2-ylsulfonyl)ethanone] it is 5.30 to 6.00. `O=C(CS(=O)(=O)Cc1ccccc1)N1Cc2ccccc2C1` [Compound 47, 2-(benzylsulfonyl)-1-(1,3-dihydro-2H-isoindol-2-yl)ethanone] showed a pEC50 of 5.00 to 5.30. With `O=C(CS(=O)(=O)c1ccccc1F)N1Cc2cc(F)c(F)cc2C1` [Compound 95, 1-(5,6-difluoro-1,3-dihydro-2H-isoindol-2-yl)-2-[(2-fluorophenyl)sulfonyl]ethanone], the pEC50 was > 6.00. `Cc1nc(SCC(=O)N2Cc3ccccc3C2)sc1C` [Compound 69, 1-(1,3-dihydro-2H-isoindol-2-yl)-2-[(4,5-dimethyl-1,3-thiazol-2-yl)sulfanyl]ethanone]: the pEC50 is 5.30 to 6.00. `O=C(CSc1ccccn1)N1Cc2ccc(O)cc2C1` [Compound 55, 1-(5-hydroxy-1,3-dihydro-2H-isoindol-2-yl)-2-(pyridin-2-ylsulfanyl)ethanone] had a pEC50 of 5.00 to 5.30. The figure for `O=C(CS(=O)(=O)c1ccc(C(F)F)s1)N1Cc2ccccc2C1` [Compound 105, 2-{[5-(difluoromethyl)thiophen-2-yl]sulfonyl}-1-(1,3-dihydro-2H-isoindol-2-yl)ethanone] is 5.00 to 5.30; for `Cc1nnc(SCC(=O)N2Cc3ccccc3C2)s1` [Compound 19, 1-(1,3-dihydro-2H-isoindol-2-yl)-2-[(5-methyl-1,3,4-thiadiazol-2-yl)sulfanyl]ethanone] it is 5.30 to 6.00; for `COc1ccc2c(c1)CN(C(=O)CS(=O)(=O)c1nccs1)C2` [Compound 29, 1-(5-methoxy-1,3-dihydro-2H-isoindol-2-yl)-2-(1,3-thiazol-2-ylsulfonyl)ethanone] it is > 6.00. Under `O=C(CS(=O)(=O)c1cccc(Cl)c1Cl)N1Cc2ccccc2C1` [Compound 98, 2-[(2,3-dichlorophenyl)sulfonyl]-1-(1,3-dihydro-2H-isoindol-2-yl)ethanone] stands > 6.00. The figure for `O=C(CCSc1ccccn1)N1Cc2ccc(F)cc2C1` [Compound 24, 1-(5-fluoro-1,3-dihydro-2H-isoindol-2-yl)-3-(pyridin-2-ylsulfanyl)propan-1-one] is > 6.00; for `O=C(CS(=O)(=O)c1cccs1)N1Cc2ccccc2C1` [Compound 46, 1-(1,3-dihydro-2H-isoindol-2-yl)-2-(thiophen-2-ylsulfonyl)ethanone] it is > 6.00. The molecule `Cc1cccc(SCC(=O)N2Cc3ccccc3C2)n1` [Compound 17, 1-(1,3-dihydro-2H-isoindol-2-yl)-2-[(6-methylpyridin-2-yl)sulfanyl]ethanone] had a pEC50 of 5.30 to 6.00. Consider `O=C(N1Cc2ccccc2C1)C(F)(F)S(=O)(=O)c1nccs1` [Compound 53, 1-(1,3-dihydro-2H-isoindol-2-yl)-2,2-difluoro-2-(1,3-thiazol-2-ylsulfonyl)ethanone], for which the pEC50 was > 6.00. Turning to `O=C(CCSc1ccccc1)N1Cc2ccccc2C1` [Compound 79, 1-(1,3-dihydro-2H-isoindol-2-yl)-3-(phenylsulfanyl)propan-1-one], the pEC50 is > 6.00. Under `O=C(CC[S+]([O-])c1ccccc1Cl)N1Cc2ccccc2C1` (stereo not shown) [Compound 83, 3-[(2-chlorophenyl)sulfinyl]-1-(1,3-dihydro-2H-isoindol-2-yl)propan-1-one] stands > 6.00. `Cc1cnc(S(=O)(=O)CC(=O)N2Cc3ccccc3C2)s1` [Compound 37, 1-(1,3-dihydro-2H-isoindol-2-yl)-2-[(5-methyl-1,3-thiazol-2-yl)sulfonyl]ethanone] gave a pEC50 of 5.00 to 5.30. Under `O=C(CSc1nccs1)N1Cc2cccc(F)c2C1` [Compound 4, 1-(4-fluoro-1,3-dihydro-2H-isoindol-2-yl)-2-(1,3-thiazol-2-ylsulfanyl)ethanone] stands > 6.00; under `O=C(C[S+]([O-])c1ccc(Cl)s1)N1Cc2ccccc2C1` (stereo not shown) [Compound 80, 2-[(5-chlorothiophen-2-yl)sulfinyl]-1-(1,3-dihydro-2H-isoindol-2-yl)ethanone], 5.30 to 6.00. Under `O=C(CS(=O)(=O)c1cc(F)ccc1F)N1Cc2ccccc2C1` [Compound 89, 2-[(2,5-difluorophenyl)sulfonyl]-1-(1,3-dihydro-2H-isoindol-2-yl)ethanone] stands 5.00 to 5.30; under `O=C(CSc1ccccc1F)N1Cc2ccccc2C1` [Compound 59, 1-(1,3-dihydro-2H-isoindol-2-yl)-2-[(2-fluorophenyl)sulfanyl]ethanone], > 6.00; under `O=C(CSc1ccccc1)N1Cc2cccc(F)c2C1` [Compound 66, 1-(4-fluoro-1,3-dihydro-2H-isoindol-2-yl)-2-(phenylsulfanyl)ethanone], > 6.00.

In the case of `O=C(CCS(=O)(=O)c1ccccc1Cl)N1Cc2ccccc2C1` [Compound 106, 3-[(2-chlorophenyl)sulfonyl]-1-(1,3-dihydro-2H-isoindol-2-yl)propan-1-one], the pEC50 is > 6.00. The figure for `Nc1nnc(SCC(=O)N2Cc3ccccc3C2)s1` [Compound 20, 2-[(5-amino-1,3,4-thiadiazol-2-yl)sulfanyl]-1-(1,3-dihydro-2H-isoindol-2-yl)ethanone] is 5.30 to 6.00.
